Read-outs that look alike come from different tables or passages of the source.

One assay has as its target Chimera 1 (Homo sapiens, UniProt P36544, M226I/T225V). Nature of the assay: [3H]A-585539 radioligand binding, HEK-293 membranes. On the set-up: expressed in transfected cells. The note with it: membranes of HEK-293 cells expressing Chimera 1; read-out: Radioligand Binding KD ± SEM.
Another assay addresses Chimera 2 (Homo sapiens, UniProt P36544, M226I/T225V). The assay can be described thus: [3H]A-585539 radioligand binding, HEK-293 membranes/homogenates. Details: expressed in transfected cells.

Sequence of Chimera 2 (P36544 with tags, fused parts or gaps T225V/M226I): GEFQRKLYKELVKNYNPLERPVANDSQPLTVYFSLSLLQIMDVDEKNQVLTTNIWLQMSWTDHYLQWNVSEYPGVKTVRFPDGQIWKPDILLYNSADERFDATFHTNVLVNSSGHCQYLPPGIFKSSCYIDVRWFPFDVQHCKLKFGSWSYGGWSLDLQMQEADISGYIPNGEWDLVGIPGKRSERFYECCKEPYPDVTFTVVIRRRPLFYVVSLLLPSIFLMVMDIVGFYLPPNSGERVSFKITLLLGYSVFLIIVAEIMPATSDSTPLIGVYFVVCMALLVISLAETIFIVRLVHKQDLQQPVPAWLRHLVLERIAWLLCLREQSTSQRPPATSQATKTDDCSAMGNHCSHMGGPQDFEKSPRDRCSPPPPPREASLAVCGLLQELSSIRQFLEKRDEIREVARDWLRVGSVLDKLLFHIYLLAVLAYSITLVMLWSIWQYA
Sequence of Chimera 1 (P36544 with tags, fused parts or gaps T225V/M226I): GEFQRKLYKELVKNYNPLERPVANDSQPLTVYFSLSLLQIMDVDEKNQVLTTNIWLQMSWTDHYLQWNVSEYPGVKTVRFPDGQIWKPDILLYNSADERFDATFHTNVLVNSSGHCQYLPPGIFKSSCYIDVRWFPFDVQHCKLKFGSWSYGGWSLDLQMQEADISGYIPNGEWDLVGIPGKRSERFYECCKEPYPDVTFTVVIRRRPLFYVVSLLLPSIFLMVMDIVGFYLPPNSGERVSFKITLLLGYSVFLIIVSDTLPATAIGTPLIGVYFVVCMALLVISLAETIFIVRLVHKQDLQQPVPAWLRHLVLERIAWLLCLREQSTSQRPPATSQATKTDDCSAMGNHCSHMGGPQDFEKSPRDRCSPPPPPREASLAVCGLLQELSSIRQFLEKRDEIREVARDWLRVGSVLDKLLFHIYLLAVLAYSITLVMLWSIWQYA

`C[N+]1(C)C[C@@H]2C[C@H]1CN2c1ccc(-c2ccccc2)nn1.[I-]` [[^3H]A585539, [^3H]-(S,S)-2,2-dimethyl-5-(6-phenyl-pyridazin-3-yl)-5-aza-2-azonia-bicyclo[2.2.1]heptane iodide]: the Kd at Chimera 1 was 0.65 nM; at Chimera 2 (10 μM genistein, 4 μg/well, read-out: Kd, saturation binding), 0.1 ± 0.01 nM; on Chimera 2 (10 μM genistein, 20 μg/well, read-out: Kd, saturation binding), 0.18 ± 0.01 nM; at Chimera 2 (absence of genistein, read-out: Kd, representative saturation binding), 0.15 nM; at Chimera 2 (membranes of HEK-293 cells expressing Chimera 2, read-out: Radioligand Binding KD ± SEM), 0.17 nM; at Chimera 2 (presence of 10 μM genistein, read-out: Kd, representative saturation binding), 0.17 nM. Also, the Kd on Chimera 2 (without genistein, 4 μg/well, read-out: Kd, saturation binding) is 0.11 ± 0.01 nM; at Chimera 2 (without genistein, 20 μg/well, read-out: Kd, saturation binding), 0.17 ± 0.02 nM. Besides, the “Bmax, saturation binding” value at Chimera 2 (10 μM genistein, 4 μg/well) was 6058.0±809.3 fmol/mg protein; at Chimera 2 (10 μM genistein, 20 μg/well), 7251.0±587.8 fmol/mg protein; on Chimera 2 (without genistein, 4 μg/well) it was 5979.0±530.3 fmol/mg protein; at Chimera 2 (without genistein, 20 μg/well), 7016.0±798.2 fmol/mg protein. Moreover, the figures for the “Bmax, representative saturation binding” value on Chimera 2 (absence of genistein) and at Chimera 2 (presence of 10 μM genistein) were 6014 fmol/mg protein and 6528 fmol/mg protein, respectively. This compound also showed a Bmax at Chimera 2 (homogenates of HEK-293-Chimera 2 cells) of 29167 fmol/mg protein.

For the origin of these results see patent US8759504B2, “Cholinergic/serotoninergic receptor and uses thereof” (AbbVie Inc., priority 2007, dated 2014).
